The source of these data is publication PMC12396409, “Screening and hit evaluation of a microbial metabolite library against the pathogenic Plasmodium falciparum and Toxoplasma gondii parasites” (International Journal for Parasitology: Drugs and Drug …, 2025).

The test system of assay [1] is P. falciparum 3D7 parasites. The assay can be described thus: P. falciparum growth inhibition assay, 1-cycle (72 h treatment), SYBR DNA staining (library screen at 2 μg/mL and dose-response). Particulars: for Pf_72h_%Growth_Rep1: replicate 1; for Pf_72h_%Growth_Rep2: replicate 2; for 1) Growth (%) at 72 h: 2 μg/mL. It counts as cell-based, Plasmodium falciparum.
Assay [2] relates to T. gondii RH strain (RH-Tub-eYFP) tachyzoites. The assay can be described thus: microbe, parasite or virus in culture. Type of assay: cell-based, Toxoplasma gondii. Conditions: 72 h; for Tg_72h_%Growth_Rep1: replicate 1; for Tg_72h_%Growth_Rep2: replicate 2.
Assay [3] relates to P. falciparum 3D7 parasites. Put plainly: P. falciparum growth inhibition assay, 2-cycle (120 h treatment), delayed-death screen and dose-response. Type of assay: cell-based, Plasmodium falciparum. Particulars: for Pf_120h_%Growth_Rep1: replicate 1; for Pf_120h_%Growth_Rep2: replicate 2; for 2) Growth (%) at 120 h / 3) Fold change (72 h/120 h): 2 μg/mL; for 3) Fold change (72 h/120 h): growth at 72 h / growth at 120 h.

Setting [4] is: P. falciparum, 72 h, screen at 2 μg/mL.
[5] abbreviates: P. falciparum, 120 h, screen at 2 μg/mL.
[6] abbreviates: library screen at 2 μg/mL, 72 h, % growth.
Where [7] appears, read: library screen at 2 μg/mL, % growth.
The mark [8] stands for this setting: library screen at 2 μg/mL, 120 h, % growth.
[9] abbreviates: T. gondii, 2 μg/mL, values are growth (% of control).
Where [10] appears, read: P. falciparum 3D7, 72 h, parasite screen at 2 μg/mL, % growth.
The mark [11] stands for this setting: T. gondii, parasite screen at 2 μg/mL, % growth.
Where [12] appears, read: P. falciparum 3D7, 120 h, parasite screen at 2 μg/mL, % growth.

Where a SMILES comes first, the peptide text is derived from it. Bridges are numbered along the chain shown (N, C = ends). [ ]: non-standard residue; d: D form. The star is where a group is joined. Octatrienoyl(2E,4E,6E) = C/C=C/C=C/C=C/C(=O)*; Pro(4R-Me) = C[C@H]1CN[C@H](C(=O)O)C1; NMeA = CN[C@@H](C)C(=O)O

In assay [1] (setting [4]), `COc1ccc(Br)c(C)c1C(=O)O[C@@H]1C[C@H](O[C@@H]2C(C)O[C@@H](O[C@H]3CCC[C@@H]4[C@@H]3C=C[C@H]3CCCC/C=C/[C@@H]5C=C(C(=O)O)[C@H](C)C[C@]56OC(=O)C(=C6O)OC(=O)[C@@]43C)C[C@H]2O)O[C@H](C)[C@H]1O` (stereo partly drawn) [Bromothricin] yielded a Pf_72h_%Growth_Rep1 of 90.13% and a Pf_72h_%Growth_Rep2 of 84.25%. For the same molecule, in assay [2] (T. gondii, screen at 2 μg/mL), the Tg_72h_%Growth_Rep1 worked out at 83.92% and the Tg_72h_%Growth_Rep2 stood at 93.14%. Moreover, in assay [3] (setting [5]), the Pf_120h_%Growth_Rep1 amounted to 159.83% and the Pf_120h_%Growth_Rep2 is 97.51%.

In assay [1] (setting [6]), `CN1C(=O)c2ccccc2-n2c(nc3ccccc3c2=O)[C@@H]1Cc1ccccc1` [Benzomalvin A] gave a Pf_72h_%Growth_Rep1 of 68.69% and a Pf_72h_%Growth_Rep2 of 85.94%. Moreover, in assay [2] (setting [7]), the Tg_72h_%Growth_Rep1 is recorded as 76.13% and the Tg_72h_%Growth_Rep2 stood at 90.69%. Besides, in assay [3] (setting [8]), the Pf_120h_%Growth_Rep1 was 152.22% and the Pf_120h_%Growth_Rep2 amounted to 94.98%.

Regarding `CCN(CC)CCS(=O)(=O)[C@@H]1CCN2C(=O)c3coc(n3)CC(=O)C[C@H](O)/C=C(C)/C=C/CNC(=O)/C=C/[C@@H](C)[C@@H](C(C)C)OC(=O)[C@@H]12.CS(=O)(=O)O` [Dalfopristin mesylate, reference compound], in assay [1] (P. falciparum, 72 h), the “1) Growth (%) at 72 h” value was determined as 45.58%. In assay [1] (setting [4]), this molecule registered a Pf_72h_%Growth_Rep1 of 55.22% and a Pf_72h_%Growth_Rep2 of 35.94%. Also, in assay [2] (T. gondii, screen at 2 μg/mL), the Tg_72h_%Growth_Rep1 is listed as 40.17% and the Tg_72h_%Growth_Rep2 turned out to be 68.18%. Besides, the “2) Growth (%) at 120 h” value in assay [3] (P. falciparum, 120 h) came to 5.60%. In assay [3] (setting [5]), this molecule came in with a Pf_120h_%Growth_Rep1 of 1.37% and a Pf_120h_%Growth_Rep2 of 9.82%. Further, in assay [3] (P. falciparum), the “3) Fold change (72 h/120 h)” value worked out at 8.1.

For the molecule `CC(=O)O[C@@H]1[C@@H]2O[C@H]2[C@@](C)(O)C(=O)[C@@H](C)C/C=C\[C@H]2[C@H](O)C(C)=C(C)[C@H]3[C@H](Cc4ccccc4)NC(=O)[C@@]123` [Epoxycytochalasin C, 19,20-], in assay [1] (setting [6]), the Pf_72h_%Growth_Rep1 is reported as 3.41% and the Pf_72h_%Growth_Rep2 amounted to 4.96%. In assay [2] (setting [7]), the Tg_72h_%Growth_Rep1 stood at 1.38% and the Tg_72h_%Growth_Rep2 came out at 1.44%. Moreover, in assay [3] (setting [8]), the Pf_120h_%Growth_Rep1 is reported as 4.88% and the Pf_120h_%Growth_Rep2 came to 15.35%.

Consider `CCCC(=O)O[C@H]1[C@H](C)O[C@@H](O[C@H]2[C@H](N(C)C)[C@@H](O)[C@H](O[C@H]3[C@@H](CC=O)C[C@@H](C)[C@@H](O)/C=C/C=C/C[C@@H](C)OC(=O)C[C@@H](OC(C)=O)[C@@H]3OC)O[C@@H]2C)C[C@@]1(C)O` [Leucomycin A4], for which the “1) Growth (%) at 72 h” value in assay [1] (P. falciparum, 72 h) worked out at 46.88%. The same molecule came in with a Mean in assay [2] (T. gondii, 2 μg/mL, mean of both replicates, growth (% of control)) of 23.43. In assay [2] (setting [9]), the “Replicate 1” value worked out at 19.43 and the “Replicate 2” value came to 27.43. In assay [3] (P. falciparum, 120 h), the “2) Growth (%) at 120 h” value amounted to 1.51%. Further, the “3) Fold change (72 h/120 h)” value in assay [3] (P. falciparum) came to 31.0.

`C/C=C/C=C/C=C/C(=O)N[C@@H](Cc1ccccc1)C(=O)N[C@H]1COC(=O)[C@@H]2C[C@@H](C)CN2C(=O)[C@H](C)NC(=O)[C@H](C)N(C)C(=O)[C@@H]2CCCN2C1=O` [A 54556A] ({Octatrienoyl(2E,4E,6E)}-FSP[NMeA]A[Pro(4R-Me)]; ester 2-C): in assay [1] (setting [6]), the Pf_72h_%Growth_Rep1 stood at 73.00% and the Pf_72h_%Growth_Rep2 came out at 56.16%. In assay [2] (setting [7]), the Tg_72h_%Growth_Rep1 was found to be 149.51% and the Tg_72h_%Growth_Rep2 is 92.23%. Besides, in assay [3] (setting [8]), the Pf_120h_%Growth_Rep1 was 58.56% and the Pf_120h_%Growth_Rep2 is given as 46.42%.

For `C[C@H]1C(=O)O[C@@H]2CCN3CC=C(COC(=O)[C@](C)(O)[C@]1(C)O)[C@H]23` [BIA-M1801], in assay [1] (setting [10]), the Pf_72h_%Growth_Rep1 worked out at 85.52% and the Pf_72h_%Growth_Rep2 is on record as 78.69%. In assay [2] (setting [11]), this molecule had a Tg_72h_%Growth_Rep1 of 108.79% and a Tg_72h_%Growth_Rep2 of 79.49%. Further, in assay [3] (setting [12]), the Pf_120h_%Growth_Rep1 turned out to be 81.80% and the Pf_120h_%Growth_Rep2 is on record as 104.58%.
